Laboratory results taken from ChEMBL document CHEMBL1136170, “5-aryl thiazolidine-2,4-diones: discovery of PPAR dual alpha/gamma agonists as antidiabetic agents” (Bioorg Med Chem Lett, 2003).
pEC50, pIC50: −log10 of the molar value.

How the values were obtained:
[1] = target: T1, Peroxisome proliferator-activated receptor alpha (Homo sapiens, UniProt Q07869); test: In vitro binding affinity against human Peroxisome proliferator activated receptor alpha
T1 sequence (Q07869 whole entry): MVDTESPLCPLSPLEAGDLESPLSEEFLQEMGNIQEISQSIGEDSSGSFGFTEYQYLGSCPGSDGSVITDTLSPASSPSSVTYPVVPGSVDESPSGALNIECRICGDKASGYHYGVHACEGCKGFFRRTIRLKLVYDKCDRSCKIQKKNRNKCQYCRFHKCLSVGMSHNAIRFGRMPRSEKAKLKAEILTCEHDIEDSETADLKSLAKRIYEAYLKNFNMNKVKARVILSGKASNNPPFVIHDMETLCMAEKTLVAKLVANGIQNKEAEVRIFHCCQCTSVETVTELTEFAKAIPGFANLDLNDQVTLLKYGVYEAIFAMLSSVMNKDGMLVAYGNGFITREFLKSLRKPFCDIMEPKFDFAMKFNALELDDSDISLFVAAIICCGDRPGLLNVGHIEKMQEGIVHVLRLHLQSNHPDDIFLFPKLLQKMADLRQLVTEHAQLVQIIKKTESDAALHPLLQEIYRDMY

[2] = Plasma clearance in fasted male Sprague dawely rats on administration of 0.5 mg/Kg i.v. of the compound; assay type: ADME, organism-based; settings: Sprague-Dawley, rat, iv, read-out: Clp
[3] = Oral bioavailability in rat (Sprague-Dawley) (fasted male) (dose 2 mg/kg); assay type: ADME, organism-based; settings: in vivo
[4] = Half life was measured in fasted male administration of compound 0.5 mg/Kg i.v.; assay type: ADME, organism-based; settings: rat, in vivo, iv
[5] = target: T2, Peroxisome proliferator-activated receptor delta (Homo sapiens, UniProt Q03181)
T2 sequence (Q03181 whole entry): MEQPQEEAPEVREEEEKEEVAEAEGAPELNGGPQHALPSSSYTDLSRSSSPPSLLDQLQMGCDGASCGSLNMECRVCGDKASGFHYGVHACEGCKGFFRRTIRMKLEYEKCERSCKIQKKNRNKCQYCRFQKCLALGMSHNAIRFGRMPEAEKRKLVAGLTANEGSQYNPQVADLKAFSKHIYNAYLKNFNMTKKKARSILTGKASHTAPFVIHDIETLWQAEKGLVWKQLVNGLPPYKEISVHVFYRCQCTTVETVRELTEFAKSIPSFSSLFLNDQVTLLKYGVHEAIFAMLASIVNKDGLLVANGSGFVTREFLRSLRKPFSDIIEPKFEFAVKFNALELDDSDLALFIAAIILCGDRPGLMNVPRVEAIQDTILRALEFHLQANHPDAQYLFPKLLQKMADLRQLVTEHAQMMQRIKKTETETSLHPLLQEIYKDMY
Description: In vitro binding affinity against human Peroxisome proliferator activated receptor delta

Mus musculus [6] = test: In vivo efficacy as percent triglyceride correction in male db/db mice at 10 mg/kg oral dose; assay type: functional
Rattus norvegicus [7] = test: Dose-normalized AUC measured in fasted male Sprague dawely rats when the compound was administered at a peroral dose of 2 mg/Kg; assay type: ADME, organism-based; settings: in vivo, po
Mus musculus [8] = test: In vivo efficacy as percent glucose correction in male db/db mice at 10 mg/kg oral dose; assay type: functional
[9] = target: T2, Peroxisome proliferator-activated receptor delta; remark: listed apart in the source
Description: In vitro transactivation of human Peroxisome proliferator activated receptor delta measured in PPAR-GAL4 chimeric COS-1 cells

[10] = Bioavailability in fasted male administration of 2 mg/Kg of compound p.o.; assay type: ADME, organism-based; settings: rat, in vivo, po
Rattus norvegicus [11] = test: Dose-normalized AUC measured in fasted male Sprague dawely rats when the compound was administered at a peroral of 2 mg/Kg; assay type: ADME, organism-based; settings: in vivo, po

Structure (SMILES)	clearance [2]	half-life [4]	pIC50 [5]	Triglyceride correction (Mus musculus [6])	nAUC (Rattus norvegicus [7])	Glucose correction (Mus musculus [8])	pEC50 [9]	other results
CCCc1cc(Oc2ccccc2)ccc1OCCCOc1ccc(C2SC(=O)NC2=O)cc1 (configuration not stated)	–	–	–	–	–	–	–	pIC50 [1]: < 4.30
CCCc1cc(Oc2ccc(Cl)c(Cl)c2)ccc1OCCCOc1cccc(C2SC(=O)NC2=O)c1 (configuration not stated)	7.9 mL/min/kg	2.2 h	< 4.30	77%	0.8 uMh	79%	< 5.52	bioavailability [3]: 19%
CCCc1cc(Oc2ccc(CC(C)C)cc2)ccc1OCCCOc1cccc(C2SC(=O)NC2=O)c1 (configuration not stated)	–	–	< 4.30	–	–	–	–	–
CCCc1cc(Oc2ccc(Cl)c(C)c2)ccc1OCCCOc1cccc(C2SC(=O)NC2=O)c1 (configuration not stated)	–	–	< 4.30	–	–	–	< 5.52	–
CCCc1cc(Oc2ccccc2)ccc1OCCCCOc1cccc(C2SC(=O)NC2=O)c1 (configuration not stated)	–	–	5.52	–	–	–	–	–
CCCc1cc(Oc2ccc(Cl)cc2)ccc1OCCCOc1cccc(C2SC(=O)NC2=O)c1 (configuration not stated)	9.7 mL/min/kg	2.9 h	< 4.30	68%	1.5 uMh	86%	< 5.52	bioavailability [3]: 44%
CCCc1cc(Oc2ccc(OC)cc2)ccc1OCCCOc1cccc(C2SC(=O)NC2=O)c1 (configuration not stated)	–	–	< 5.00	–	–	–	< 5.52	–
CCCc1cc(Oc2ccccc2)ccc1OCCCOc1cccc(C2SC(=O)NC2=O)c1 (configuration not stated)	9.5 mL/min/kg	1.5 h	–	67%	21.78 uMh	91%	–	bioavailability [10]: 62%
CCCc1cc(Oc2ccc(O)cc2)ccc1OCCCOc1cccc(C2SC(=O)NC2=O)c1 (configuration not stated)	–	–	5.42	–	–	–	< 5.52	–
CCCc1cc(Oc2ccc(C(C)C)cc2)ccc1OCCCOc1cccc(C2SC(=O)NC2=O)c1 (configuration not stated)	6.1 mL/min/kg	3.3 h	< 4.30	–	–	–	< 5.52	bioavailability [3]: 6%; nAUC (Rattus norvegicus [11]): 0.3 uMh
CCCc1cc(Oc2ccc(C(C)(C)C)cc2)ccc1OCCCOc1cccc(C2SC(=O)NC2=O)c1 (configuration not stated)	–	–	< 4.30	–	–	–	–	–
O=C1NC(=O)C(c2cccc(OCCCOc3ccc(Oc4ccccc4)cc3)c2)S1 (configuration not stated)	–	–	6.72	–	–	–	–	–
CCCc1cc(Oc2ccc(F)c(C)c2)ccc1OCCCOc1cccc(C2SC(=O)NC2=O)c1 (configuration not stated)	10.5 mL/min/kg	3.3 h	< 4.30	69%	0.6 uMh	78%	< 4.30	bioavailability [3]: 20%
CCCc1cc(Oc2ccc(F)cc2)ccc1OCCCOc1cccc(C2SC(=O)NC2=O)c1 (configuration not stated)	10.2 mL/min/kg	1.3 h	< 5.30	76%	3.3 uMh	90%	< 5.52	bioavailability [3]: 66%
CCCc1cc(Oc2ccc(-c3ccccc3)cc2)ccc1OCCCOc1cccc(C2SC(=O)NC2=O)c1 (configuration not stated)	–	–	< 4.30	–	–	–	< 5.52	–
CCCc1cc(Oc2ccc(C3CCCC3)cc2)ccc1OCCCOc1cccc(C2SC(=O)NC2=O)c1 (configuration not stated)	–	–	< 4.30	–	–	–	< 5.52	–
CN(CCOc1ccc(CC2SC(=O)NC2=O)cc1)c1ccccn1 (configuration not stated) [ROSIGLITAZONE]	–	–	–	74%	16.4 uMh	67%	–	–
